Data: publication PMC11658185, “Analysis of the quadruple lsu mutant reveals molecular determinants of the role of LSU proteins in sulfur assimilation in Arabidopsis” (The Plant Journal, 2024)

Molecular target: T1, SiR (sulfite reductase; His-SiR) (Arabidopsis thaliana, UniProt Q9LZ66)
T1 construct: N-terminal His tag, expressed in E. coli Rosetta (DE3), expected size 68 kDa; truncations printed up to residue 642
T1 sequence (Q9LZ66 62-642): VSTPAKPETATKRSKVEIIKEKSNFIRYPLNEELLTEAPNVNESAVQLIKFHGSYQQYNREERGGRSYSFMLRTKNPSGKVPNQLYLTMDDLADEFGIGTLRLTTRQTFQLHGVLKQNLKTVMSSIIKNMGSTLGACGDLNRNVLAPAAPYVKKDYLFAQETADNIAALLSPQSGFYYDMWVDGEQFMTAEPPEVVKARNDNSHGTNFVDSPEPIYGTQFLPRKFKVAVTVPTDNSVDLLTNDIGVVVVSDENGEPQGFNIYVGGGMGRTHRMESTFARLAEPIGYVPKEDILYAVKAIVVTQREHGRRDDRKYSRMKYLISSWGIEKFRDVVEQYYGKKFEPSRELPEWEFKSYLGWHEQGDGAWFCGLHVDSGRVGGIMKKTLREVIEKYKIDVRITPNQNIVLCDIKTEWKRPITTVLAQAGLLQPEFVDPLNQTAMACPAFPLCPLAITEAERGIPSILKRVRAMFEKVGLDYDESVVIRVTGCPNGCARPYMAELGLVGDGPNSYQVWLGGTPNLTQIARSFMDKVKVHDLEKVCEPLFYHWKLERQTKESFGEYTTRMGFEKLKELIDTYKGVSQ
Assay: coupled assay: sulfide trapped as cysteine by O-acetylserine(thiol)lyase, ninhydrin, OD […] nm; sulfite varied
Assay type: biochemical
Conditions: pH 7.5, 25 mM HEPES, RT, 1 h; methyl viologen reduced by dithionite as electron donor; O-acetylserine 5 mM; without LSU1

## O=S(O)O [sulfite]
  coupled assay: sulfide trapped as cysteine by O-acetylserine(thiol)lyase, ninhyd: Specific activities of the enzyme at various concentrations of: electron donor methyl‐viologen (a), substrate sulfite (b)
